Columns and labels:
Format in all cases: cell-based
rat P2X7 = rat P2X7 (Rattus norvegicus (Rat), UniProt Q64663); experiment: Ca2+ flux (FLIPR) in 1321N1 cells expressing recombinant rat P2X7 channel; details: 250 μM BzATP;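 also: Calcium-4 dye fluorescence change read 180 s after agonist addition, following 30 min cell preincubation with test compound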
P2X7 [1] = target: T1, P2X7 (Homo sapiens (Human), UniProt Q99572); experiment: Ca2+ flux (FLIPR) in 1321N1 cells expressing recombinant human P2X7 channel; details: 250 μM BzATP;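 also: Calcium-4 dye-loaded cells exposed to compound for 30 min before agonist addition, fluorescence change read 180 s after agonist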
Description: Cells were seeded at a density of 25000 cells/well (96-well clear bottom black walled plates) in 100 μl volume/well. On the day of the experiment, cell plates were washed with assay buffer, containing (in mM): 130 NaCl, 2 KCl, 1 CaCl2, 1 MgCl2, 10 HEPES, 5 glucose; pH 7.40 and 300 mOs. After the wash, cells were loaded with the Calcium-4 dye (Molecular Device) and incubated in the dark for 60 minutes. Test compounds were prepared at 250× the test concentration in neat DMSO. Intermediate 96-well compound plates were prepared by transferring 1.2 μL of the compound into 300 μL of assay buffer. A further 3× dilution occurred when transferring 50 μL/well of the compound plate to 100 μL/well in the cell plate. Cells were incubated with test compounds and dye for 30 minutes. […] The fluorescence change was measured 180 seconds after adding the agonist.

P2X7 [2] = target: T1, P2X7; experiment: P2X7 antagonism in human PBMCs (LPS + Bz-ATP induced IL-1β release, ELISA); details: LPS 30 ng/ml, Bz-ATP 0.5 mM; for PBMC 10 μM (% control): compound 10 μM; for PBMC 1 μM (% control): compound 1 μM;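 as to all read-outs here: PBMCs from donor human blood, with a further 1.5 h incubation of the cells in the assay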

Sequence of rat P2X7 (Q64663 whole entry): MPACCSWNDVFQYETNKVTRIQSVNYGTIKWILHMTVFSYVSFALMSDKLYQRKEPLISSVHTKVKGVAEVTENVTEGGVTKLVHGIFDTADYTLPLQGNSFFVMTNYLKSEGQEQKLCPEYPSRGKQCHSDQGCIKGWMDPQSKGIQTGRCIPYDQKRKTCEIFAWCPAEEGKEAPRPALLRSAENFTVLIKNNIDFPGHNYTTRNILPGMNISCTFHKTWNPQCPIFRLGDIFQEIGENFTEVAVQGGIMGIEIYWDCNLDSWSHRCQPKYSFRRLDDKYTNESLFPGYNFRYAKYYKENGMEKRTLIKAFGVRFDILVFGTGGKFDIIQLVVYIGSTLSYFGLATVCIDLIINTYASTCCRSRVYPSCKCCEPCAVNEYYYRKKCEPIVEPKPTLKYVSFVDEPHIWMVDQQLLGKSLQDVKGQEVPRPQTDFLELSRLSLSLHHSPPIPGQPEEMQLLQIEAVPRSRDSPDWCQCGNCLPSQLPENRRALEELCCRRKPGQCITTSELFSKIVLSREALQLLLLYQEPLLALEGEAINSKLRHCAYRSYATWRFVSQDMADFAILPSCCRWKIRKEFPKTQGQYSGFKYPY
T1 sequence (Q99572 whole entry): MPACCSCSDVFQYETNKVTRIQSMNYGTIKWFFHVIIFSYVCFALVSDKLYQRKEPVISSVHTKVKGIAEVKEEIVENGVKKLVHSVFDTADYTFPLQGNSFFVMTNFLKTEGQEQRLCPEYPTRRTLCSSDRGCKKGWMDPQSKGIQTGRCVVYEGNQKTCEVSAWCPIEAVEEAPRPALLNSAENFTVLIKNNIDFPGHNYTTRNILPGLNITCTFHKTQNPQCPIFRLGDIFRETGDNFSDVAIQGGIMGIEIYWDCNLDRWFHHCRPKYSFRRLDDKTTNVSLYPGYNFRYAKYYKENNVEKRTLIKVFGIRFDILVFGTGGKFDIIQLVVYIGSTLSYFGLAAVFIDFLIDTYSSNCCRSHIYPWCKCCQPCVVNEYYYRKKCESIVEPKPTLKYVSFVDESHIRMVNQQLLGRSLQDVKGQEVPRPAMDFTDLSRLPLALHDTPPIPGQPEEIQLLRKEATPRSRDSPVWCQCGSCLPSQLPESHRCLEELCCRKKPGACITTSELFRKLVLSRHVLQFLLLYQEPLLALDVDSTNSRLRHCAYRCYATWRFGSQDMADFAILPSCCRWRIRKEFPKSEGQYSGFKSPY

IC50 (rat P2X7) [nM]	IC50 (P2X7 [1]) [nM]	PBMC 10 μM (% control) (P2X7 [2])	PBMC 1 μM (% control) (P2X7 [2])	Structure (SMILES)
38200	499	−4.8	–	Cc1cc(C)nc(-n2nnc3c2CCN(C(=O)c2cccc(Cl)c2Cl)C3C)c1 (stereo not shown) [Example 231, (2,3-dichlorophenyl)(1-(4,6-dimethylpyridin-2-yl)-4-methyl-6,7-dihydro-1H-[1,2,3]triazolo[4,5-c]pyridin-5(4H)-yl)methanone]
–	1140	−2.3	–	CC1CN(C(=O)c2cccc(Cl)c2Cl)Cc2nnn(-c3ccccc3)c21 (stereo not shown) [Example 244, (2,3-Dichlorophenyl)(7-methyl-1-phenyl-6,7-dihydro-1H-[1,2,3]triazolo[4,5-c]pyridin-5(4H)-yl)methanone]
–	2310	15.2	–	COc1ccc(-n2nnc3c2CCN(C(=O)c2cccc(C(F)(F)F)c2Cl)C3C)nc1 (stereo not shown) [Example 145, (2-Chloro-3-(trifluoromethyl)phenyl)(1-(5-methoxypyridin-2-yl)-4-methyl-6,7-dihydro-1H-[1,2,3]triazolo[4,5-c]pyridin-5(4H)-yl)methanone]
–	9590	40.5	–	C[C@@H]1c2nnn(-c3ccccn3)c2CCN1C(=O)c1ccc(F)c(Cl)c1Cl (single isomer, unassigned) [Example 141, (R*)-(2,3-Dichloro-4-fluorophenyl)(4-methyl-1-(pyridin-2-yl)-6,7-dihydro-1H-[1,2,3]triazolo[4,5-c]pyridin-5(4H)-yl)methanone]
–	2330	−0.8	–	CC1CN(C(=O)c2cccc(Cl)c2Cl)Cc2nnn(-c3ccc(F)cc3)c21 (stereo not shown) [Example 247, (2,3-Dichlorophenyl)(1-(4-fluorophenyl)-7-methyl-6,7-dihydro-1H-[1,2,3]triazolo[4,5-c]pyridin-5(4H)-yl)methanone]

More lines, now with the values behind:

Structure (SMILES)	IC50 (rat P2X7) [nM]	IC50 (P2X7 [1]) [nM]	PBMC 10 μM (% control) (P2X7 [2])	PBMC 1 μM (% control) (P2X7 [2])
CC1c2nn(COCC[Si](C)(C)C)c(-c3ncc(F)cn3)c2CCN1C(=O)c1cccc(C(F)(F)F)c1Cl (stereo not shown) [Example 303, (2-chloro-3-(trifluoromethyl)phenyl)(3-(5-fluoropyrimidin-2-yl)-7-methyl-2-((2-(trimethylsilyl)ethoxy)methyl)-4,5-dihydro-2H-pyrazolo[3,4-c]pyridin-6(7H)-yl)methanone]	5190	6920	−1.6	–
Cn1nc2c(c1-c1ccncc1)CCN(C(=O)c1cccc(Cl)c1Cl)C2 [Example 328, (2,3-dichlorophenyl)(2-methyl-3-(pyridin-4-yl)-4,5-dihydro-2H-pyrazolo[3,4-c]pyridin-6(7H)-yl)methanone]	> 10000	> 10000	–	88.0
O=C(c1cccc(C(F)(F)F)c1Cl)N1CCc2c(nc(C(F)(F)F)n2-c2ccccc2)C1 [Example 38, (2-Chloro-3-(trifluoromethyl)phenyl)(1-phenyl-2-(trifluoromethyl)-6,7-dihydro-1H-imidazo[4,5-c]pyridin-5(4H)-yl)methanone]	–	14.3	−0.3	–
O=C(OCC1c2ncn(-c3ccccc3)c2CCN1C(=O)c1cccc(C(F)(F)F)c1Cl)c1cccc(C(F)(F)F)c1Cl (stereo not shown) [Example 36, (5-{[2-Chloro-3-(trifluoromethyl)phenyl]carbonyl}-1-phenyl-4,5,6,7-tetrahydro-1H-imidazo[4,5-c]pyridin-4-yl)methyl 2-chloro-3-(trifluoromethyl)benzoate]	–	3080	–	16.6
O=C(c1ccc(Cl)cc1Cl)N1CCc2c(ncn2-c2ccc(F)cn2)C1 [Example 313, (2,4-dichlorophenyl)(1-(5-fluoropyridin-2-yl)-6,7-dihydro-1H-imidazo[4,5-c]pyridin-5(4H)-yl)methanone]	–	1110	−5.4	–
Cn1nc(-c2ccc(F)cc2)c2c1CN(C(=O)c1cccc(Cl)c1Cl)CC2 [Example 109, 6-[(2,3-Dichlorophenyl)carbonyl]-3-(4-fluorophenyl)-1-methyl-4,5,6,7-tetrahydro-1H-pyrazolo[3,4-c]pyridine]	–	251	–	94.1

Source: patent US9464084B2, “P2X7 modulators” (Janssen Pharmaceutica NV, priority 2013, dated 2016)
